The target in one test is T1, CK2A1 (CK2α/β) (Homo sapiens, UniProt P68400).
T1 construct: made in house
Description: CK2 kinase assay, CK2A1 (CK2α/β). The following applies: Table 1; read-out: CK2A1 (CK2α/β) (IC50). The class given is biochemical. The procedure: (§1) The effectiveness of compounds of the present invention as inhibitors of protein kinases can be readily tested by assays known to those skilled in the art. For example, in vitro protein kinase assays may be conducted with a relevant purified protein kinase and an appropriate synthetic substrate to determine the inhibitory activity of the compounds. […] Reaction mixtures were incubated at 30° C. for 1 hour, and reaction products were captured by binding to phosphocellulose (P81) filter plates. Incorporation of radioactive phosphate into the peptide substrate was determined by liquid scintillation counting. The potency of compounds in inhibiting CK2 is expressed as IC50, defined as the concentrations of compounds required to inhibit the enzymatic activity by 50%.
(§2) The inhibitory activity of the instant compounds may also be measured by recombinant CK2 holoenzyme kinase assays. The assays were performed in U-bottom 384-well plates. The final assay volume was 30 μl prepared from 15 μl additions of enzyme and substrates (fluoresceinated peptide FL-RRRADDSDDDDD-NH2 and ATP) and test compounds in assay buffer (20 mM HEPES pH 7.4, 10 mM MgCl2, 100 mM NaCl, 0.015% Brij35 and 0.25 mM DTT). The reaction was initiated by the combination of bacterially expressed, CK2 α/β or CK2 α′/β holoenzyme with substrates and test compounds. The reaction was incubated at room temperature for 60 minutes and terminated by adding 30 μl of 35 mM EDTA to each sample. The reaction mixture was analyzed on the Caliper LABCHIP® 3000 (Caliper, Hopkinton, Mass.) by electrophoretic separation of the fluorescent substrate and phosphorylated product. Inhibition data were calculated by comparison to no enzyme control reactions for 100% inhibition and vehicle-only reactions for 0% inhibition. The final concentration of reagents in the CK2 α/β assay was 25 μM ATP, 1.5 μM FL-RRRADDSDDDDD-NH2, […] CK2 α/β holoenzyme, and 1.6% DMSO. The final concentration of reagents in the CK2 α′/β assay was 10 μM ATP, 1.5 μM FL-RRRADDSDDDDD-NH2, 100 pM CK2 α′/β holoenzyme, and 1.6% DMSO. Dose response curves were generated to determine the concentration required inhibiting 50% of kinase activity (IC50). Compounds were dissolved at 10 mM in dimethylsulfoxide (DMSO) and evaluated at eleven concentrations. IC50 values were derived by non-linear regression analysis.

Another test has as its target T2, CK2A2 (CK2α′/β) (Homo sapiens, UniProt P19784).
T2 construct: made in house
Description: CK2 kinase assay, CK2A2 (CK2α′/β). The class given is biochemical. Conditions: Table 1; read-out: CK2A2 (CK2α′/β) (IC50). Here is the method:
as §1, §2

In the next test the test system is HCT116. Kind of test: Cell proliferation inhibition assay (MTT/MTS). The class given is cell-based. Conditions: Homo sapiens, HCT-116, Table 1, 72 h with compound. Here is the method:
Compounds were evaluated for their ability to inhibit cell proliferation, using an assay that measures mitochondrial metabolic activity, that is directly correlated with cell numbers. Cells were plated at 2000 cells/well in 96-well plates and were cultured for 24 h in RPMI-1640 supplemented with 2% fetal bovine serum, before test compounds were added. Compounds were diluted in culture medium such that the final concentration of dimethyl sulfoxide never exceeded 1%. Following the addition of compounds, the cells were cultured for an additional 72 h before cell viability was determined by measuring the conversion of 3-(4,5-dimethylthiazol-2-yl)-2,5-diphenyltetrazolium bromide (MTT) dye using the CellTiter96 kit (Promega) or by measuring the conversion of [3-(4,5-dimethylthiazol-2-yl)-5-(3-carboxymethoxyphenyl)-2-(4-sulfophenyl)-2H-tetrazolium (MTS) dye using the CELLTITER 96® AQueous (Promega).

pIC50: −log10 of the molar value.

T2 sequence (P19784 whole entry, species assumed): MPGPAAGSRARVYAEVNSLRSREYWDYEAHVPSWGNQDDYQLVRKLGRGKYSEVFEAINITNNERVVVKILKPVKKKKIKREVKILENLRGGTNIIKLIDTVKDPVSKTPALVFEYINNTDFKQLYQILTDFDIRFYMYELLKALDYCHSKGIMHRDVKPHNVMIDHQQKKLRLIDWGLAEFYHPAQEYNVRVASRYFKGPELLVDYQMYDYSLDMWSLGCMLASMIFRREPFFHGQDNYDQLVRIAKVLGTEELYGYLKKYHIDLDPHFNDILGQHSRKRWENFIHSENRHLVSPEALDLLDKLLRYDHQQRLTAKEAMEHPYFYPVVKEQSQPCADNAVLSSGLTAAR
T2 sequence (P67870 whole entry partner, species assumed): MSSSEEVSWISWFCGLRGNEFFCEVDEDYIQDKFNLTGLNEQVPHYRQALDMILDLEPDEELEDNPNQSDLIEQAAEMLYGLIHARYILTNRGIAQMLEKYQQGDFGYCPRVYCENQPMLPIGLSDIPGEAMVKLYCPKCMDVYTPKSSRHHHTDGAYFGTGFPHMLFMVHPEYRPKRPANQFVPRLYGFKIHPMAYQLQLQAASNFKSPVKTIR
T1 sequence (P68400 whole entry, species assumed): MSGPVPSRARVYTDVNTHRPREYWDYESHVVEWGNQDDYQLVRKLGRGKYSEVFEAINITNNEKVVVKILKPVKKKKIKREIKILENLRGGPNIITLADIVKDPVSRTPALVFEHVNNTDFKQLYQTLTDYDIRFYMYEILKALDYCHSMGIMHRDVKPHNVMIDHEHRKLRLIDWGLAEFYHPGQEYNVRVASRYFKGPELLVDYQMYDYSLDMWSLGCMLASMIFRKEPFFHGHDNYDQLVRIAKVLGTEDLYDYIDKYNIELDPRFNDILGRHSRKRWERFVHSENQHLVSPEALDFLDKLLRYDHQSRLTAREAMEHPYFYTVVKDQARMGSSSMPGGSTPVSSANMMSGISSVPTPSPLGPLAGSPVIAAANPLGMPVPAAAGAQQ
T1 sequence (P67870 whole entry partner, species assumed): as the sequence (P67870 whole entry partner, species assumed) above

Turning to `COC(=O)Nc1cc(Nc2cc(NC3CC3)c3ncc(C#N)n3n2)ccc1C` [Example 95, Methyl (5-((3-cyano-8-(cyclopropylamino)imidazo [1,2-b]pyridazin-6-yl)amino)-2-methylphenyl) carbamate], the pIC50 was 8.19 at CK2A1 (CK2α/β), 8.52 on CK2A2 (CK2α′/β) and 7.66 in the test with HCT116.

Consider `COc1ccc(Nc2cc(Nc3ccc(OC(F)(F)F)c(-n4cnnc4)c3)nn3c(C#N)cnc23)nc1` [Example 111, 8-((5-Methoxy-2-pyridinyl)amino)-6-((3-(4H-1,2,4-triazol-4-yl)-4-(trifluoromethoxy)phenyl)amino)imidazo[1,2-b] pyridazine-3-carbonitrile], for which the pIC50 at CK2A1 (CK2α/β) was 6.93; at CK2A2 (CK2α′/β), 7.62; in the test on HCT116, 7.47.

Turning to `COc1ccc(-n2cncn2)cc1Nc1cc(NC2CC2)c2ncc(C#N)n2n1` [Example 160, 8-(Cyclopropylamino)-6-((2-methoxy-5-(1H-1,2,4-triazol-1-yl)phenyl)amino)imidazo [1,2-b]pyridazine-3-carbonitrile], the pIC50 at CK2A1 (CK2α/β) is 7.71; on CK2A2 (CK2α′/β), 8.34; in the test on HCT116 it was 7.35.

`N#Cc1cnc2c(NC3CC3)cc(Nc3cc(-n4cncn4)ccc3OC(F)(F)F)nn12` [Example 167, 8-(Cyclopropylamino)-6-((5-(1H-1,2,4-triazol-1-yl)-2-(trifluoromethoxy)phenyl)amino)imidazo[1,2-b]pyridazine-3-carbonitrile]: the pIC50 on CK2A1 (CK2α/β) is 6.99; on CK2A2 (CK2α′/β) it was 7.90; in the test with HCT116, below 6.00.

As to `N#Cc1ccnc(Nc2cc(NC3CC3)c3ncc(C#N)n3n2)c1` [Example 168, 6-((4-Cyano-2-pyridinyl)amino)-8-(cyclopropylamino) imidazo[1,2-b]pyridazine-3-carbonitrile], the pIC50 at CK2A1 (CK2α/β) is 7.92; on CK2A2 (CK2α′/β) it was 8.31; with HCT116, 6.89.

Take `Cc1ccc(Nc2cc(Nc3ccccn3)c3ncc(C#N)n3n2)cc1C#N` [Example 196, 6-((3-Cyano-4-methylphenyl)amino)-8-(2-pyridinylamino)imidazo[1,2-b]pyridazine-3-carbonitrile]: the pIC50 at CK2A1 (CK2α/β) was 7.91; at CK2A2 (CK2α′/β) it was 8.47; in the test with HCT116 it was 7.19.

`N#Cc1cnc2c(NC3CC3)cc(Nc3cccc(-c4cccnc4)c3)nn12` [Example 214, 8-(Cyclopropylamino)-6-((3-(3-pyridinyl)phenyl)amino) imidazo[1,2-b]pyridazine-3-carbonitrile]: the pIC50 at CK2A1 (CK2α/β) was 6.22; on CK2A2 (CK2α′/β), 6.92; with HCT116 it was below 5.00.

Turning to `Cc1ccc(Nc2cc(NC3CC3)c3ncc(C#N)n3n2)cc1CC(=O)O` [Example 224, (5-((3-Cyano-8-(cyclopropylamino)imidazo [1,2-b]pyridazin-6-yl)amino)-2-methylphenyl) acetic acid], the pIC50 is 6.10 at CK2A1 (CK2α/β), 6.90 at CK2A2 (CK2α′/β) and below 5.00 in the test with HCT116.

For the molecule `Cc1cc(Cl)c(Nc2cc(NC3CC3)c3ncc(C#N)n3n2)cc1C#N` [Example 225, 6-((2-Chloro-5-cyano-4-methylphenyl)amino)-8-(cyclopropylamino)imidazo [1,2-b]pyridazine-3-carbonitrile], the figures for the pIC50 on CK2A1 (CK2α/β), at CK2A2 (CK2α′/β) and in the test on HCT116 were 8.09, 8.96 and 7.46, respectively.

As to `COc1ccc(C#N)cc1Nc1cc(N)c2ncc(C#N)n2n1` [Example 228, 8-Amino-6-((5-cyano-2-methoxyphenyl)amino) imidazo[1,2-b]pyridazine-3-carbonitrile], the pIC50 at CK2A1 (CK2α/β) is 8.05; at CK2A2 (CK2α′/β) it was 8.77; in the test on HCT116, 6.49.

As for `Cc1cc(Cl)c(Nc2cc(Nc3ccccn3)c3ncc(C#N)n3n2)cc1C#N` [Example 233, 6-((2-Chloro-5-cyano-4-methylphenyl)amino)-8-(2-pyridinylamino)imidazo[1,2-b]pyridazine-3-carbonitrile], the pIC50 on CK2A1 (CK2α/β) is 8.15; on CK2A2 (CK2α′/β), 8.64; with HCT116, 6.89.

As for `CCc1ccc(Nc2cc(NC3CC3)c3ncc(C#N)n3n2)cc1NS(C)(=O)=O` [Example 235, N-(5-((3-Cyano-8-(cyclopropylamino)imidazo [1,2-b]pyridazin-6-yl)amino)-2-ethylphenyl) methanesulfonamide], the figures for the pIC50 on CK2A1 (CK2α/β), on CK2A2 (CK2α′/β) and in the test on HCT116 were 7.60, 8.19 and 6.36, respectively.

Turning to `CCN(CC)c1ccc(Nc2cc(NC3CC3)c3ncc(C#N)n3n2)cc1` [Example 244, 8-(Cyclopropylamino)-6-((4-(diethylamino)phenyl)amino)imidazo[1,2-b]pyridazine-3-carbonitrile], the pIC50 on CK2A1 (CK2α/β) was 6.99; at CK2A2 (CK2α′/β), 7.64; in the test with HCT116, 5.95.
